# Publication PMC9445041, “Development of a red fluorescent protein-based cGMP indicator applicable for live-cell imaging” (Communications Biology, 2022)
# pEC50: −log10 of the molar value.
# Target: T1, Red cGull (Mus musculus, UniProt Q8CG03)
# T1 construct: gene Pde5a; N-terminal mouse APP fragment (aa 190-286) fused for bacterial expression; purified on Ni-NTA from E. coli JM109(DE3)
# Experiment: fluorescence intensity dose-response, four-parameter logistic fit
# Type: binding
# T1 sequence (Q8CG03 164-298): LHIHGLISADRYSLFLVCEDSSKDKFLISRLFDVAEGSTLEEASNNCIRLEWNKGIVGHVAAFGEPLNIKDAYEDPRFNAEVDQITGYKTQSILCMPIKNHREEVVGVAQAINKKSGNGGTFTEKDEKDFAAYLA
compound,measurement,value
Nc1nc2c(ncn2[C@@H]2O[C@@H]3COP(=O)(O)O[C@H]3[C@H]2O)c(=O)[nH]1 [cGMP],pEC50,6.48
